Consider 1 compound from patent publication US20200399308A1, “COMPOUNDS AND METHODS FOR ELICITING ANTIMICROBIAL ACTIVITY” (Technion Research & Development Foundation Limited, priority 2018, published 2020).

Converted amounts (≈) assume the structure as drawn. Non-standard residues stand in square brackets, D forms with d. Residues, ends and D or L forms follow the SMILES beside them. *: point of attachment. 12Ado = NCCCCCCCCCCCC(=O)O; Decanoyl = CCCCCCCCCC(=O)*; Orn = NCCC[CH](N)C(=O)O A value given as a limit tells only on which side of the number the result lay.

As a reminder, the MIC is the lowest concentration found to suppress growth. The MBC is the lowest tested concentration that kills the bacteria rather than only halting them.

Data set [1] is described as follows: Charge at physiological pH (Q). It is filed as physicochemical.
Data set [2] is described as follows: Critical aggregation concentration by light scattering in PBS. Format: physicochemical. To be noted: light scattering in phosphate-buffered saline. The method, then:
Organization of the compounds in aqueous solution was assessed by light-scattering measurements in phosphate buffered saline (PBS; 10 mM Na2HPO4, 150 mM NaCl, pH=7.0). Hemolytic assays were performed as described elsewhere, using fresh mouse red blood cells.
(§1) The mean value (±SD) is shown for Compound C; Minimum inhibitory concentration (MIC) of compounds required to inhibit bacterial proliferation after overnight incubation.

Data set [3] concerns Escherichia coli 25922. The experiment in a line: Minimal inhibitory concentration. It is filed as cell-based. To be noted: Ec 25922, overnight incubation, read-out: MIC. The method, then: (§2) Minimal inhibitory concentrations (MICs) were determined as previously described. […] MICs were determined by microdilution susceptibility testing in 96-well plates (by Nunc) using inocula of 10^5 bacteria per ml. Cell populations were evaluated by optical density measurements at 620 nm and were calibrated against a set of standards. Hundred (100) μl of a bacterial suspension were added to 100 μl of culture medium (control) or to 100 μl of culture medium containing various tested compound concentrations in 2-fold serial dilutions. Inhibition of proliferation was determined by optical density measurements at 620 nm after an incubation period of 24 hours at 37° C. Data were obtained from ≥2 independent experiments performed in duplicate.
as §1

The test system of data set [4] is Escherichia coli ML35p. The experiment in a line: Minimal inhibitory concentration. To be noted: Ec ML35p, overnight incubation. It is filed as cell-based. How it is done:
as §2, §1

Data set [5] concerns Klebsiella pneumoniae 1287. The experiment in a line: Minimal inhibitory concentration. It is filed as cell-based. To be noted: Kp 1287, overnight incubation, read-out: MIC. The method, then:
as §2, §1

Data set [6] relates to Klebsiella pneumoniae C2 (carbapenemase 2-producing strain). The experiment in a line: Minimal inhibitory concentration. The settings on record: Kp C2, overnight incubation, read-out: MIC. Format: cell-based. The method, then: as §2, §1
Data set [7] deals with Pseudomonas aeruginosa 11662. The experiment in a line: Minimal inhibitory concentration. Format: cell-based. The settings on record: Pa 11662, overnight incubation, read-out: MIC. How it is done:
as §2, §1

The subject of data set [8] is Pseudomonas aeruginosa 11816. The experiment in a line: Minimal inhibitory concentration. Format: cell-based. To be noted: Pa 11816, overnight incubation, read-out: MIC. How it is done: as §2, §1
Data set [9] concerns Salmonella enterica serovar Choleraesuis 7308. The experiment in a line: Minimal inhibitory concentration. Format: cell-based. To be noted: CHOLERAESUIS / SC7308, SC 7308, overnight incubation, read-out: MIC. The method, then: as §2, §1
In data set [10] the test system is Salmonella enterica serovar Typhimurium 14028. The experiment in a line: Minimal inhibitory concentration. Format: cell-based. The settings on record: ST 14028, overnight incubation, read-out: MIC. How it is done: as §2, §1
Data set [11] relates to E. coli. The experiment in a line: Minimal bactericidal concentration. To be noted: Escherichia coli. Format: cell-based.
The nature of data set [12]: Maximum tolerated dose, single-dose subcutaneous administration. Format: in vivo. The settings on record: subcutaneous 20 mg/kg, mice. How it is done: Mortality was monitored for 7 days thereafter. Pharmacokinetic studies were performed as described elsewhere.
The subject of data set [13] is E. coli 25922. The experiment in a line: Growth kinetics by absorbance at 620 nm. Format: cell-based, Escherichia coli. The settings on record: 10 μM Compound B, culture medium. The method, then: (§3) FIGS. 6A-B present growth kinetics assessed by measuring the absorbance at 620 nm of E. coli 25922 (FIG. 6A) and K. pneumoniae 1287 (FIG. 6B) in absence or presence of the 10 μM of Compound B (circles denote vehicle control, triangles denote Compound B; error bars represent standard deviations).

For data set [14], the system named is K. pneumoniae 1287. The experiment in a line: Growth kinetics by absorbance at 620 nm. Format: cell-based, Klebsiella pneumoniae. The settings on record: 10 μM Compound B, culture medium. The method, then:
as §3

Data set [15] has as its system Escherichia coli 25922. The experiment in a line: Mouse peritonitis-sepsis model. Format: in vivo. How it is done:
A mouse peritonitis-sepsis model was created as described elsewhere. Infection was obtained after intraperitoneal injection of bacteria from a logarithmic-phase culture. Infected mice were treated subcutaneously. The doses were selected to allow comparison with the reference compound and to remain below the maximum tolerated dose after double-dose administration. […] Briefly, mouse peritonitis sepsis model for in vivo studies were performed using male ICR mice ([…]) obtained from Envigo Laboratories (Rehovot, Israel). […] Infection was obtained by intraperitoneal injection of a logarithmic phase culture of E. coli 25922 (1.3±0.2×10^6 CFU permouse in 0.3 ml PBS). […] Infection control mice were injected with the PBS vehicle. Mouse survival was monitored for up to 7 days after treatment. Statistical analyses were performed by paired Student's t test, at α=0.05.

Data set [16] deals with Klebsiella pneumoniae 1287. The experiment in a line: Mouse peritonitis-sepsis model. Format: in vivo. To be noted: for survival frequency: neutropenic ICR mice infected i.p.
Data set [17] deals with Escherichia coli 25922. The experiment in a line: Mouse thigh infection model. To be noted: normal mice inoculated intramuscularly, treated s.c. 1 hour thereafter, CFU 24 hours post-treatment. Format: in vivo. The method, then:
(§4) Mouse thigh infection model was afforded from normal ICR mice, which were inoculated intramuscularly and treated subcutaneously 1 hour thereafter with a tested compound or polymyxin B (PMB; Sigma-Aldrich) as described elsewhere. P values were calculated using a 1-tailed t test (assuming unequal variance). A P value of <0.05 is considered statistically significant.

The test system of data set [18] is Klebsiella pneumoniae 1287. The experiment in a line: Mouse thigh infection model. Format: in vivo. To be noted: normal mice inoculated intramuscularly, treated s.c. 1 hour thereafter. The method, then:
as §4

Data set [19] deals with wild-type isogenic strain. The experiment in a line: MIC on wild-type isogenic strain. It is filed as cell-based. The settings on record: Escherichia coli, data not shown.
Excerpt: The following strains were used for the studies below: Escherichia coli strain ML-35p (American Type Culture Collection [ATCC]; […]. The following gram-positive species was investigated: methicillin-resistant Staphylococcus aureus clinical isolate USA300 10017 (a gift from Dr. Gili Regev-Yochay, Infectious Disease Unit, Sheba Medical Center, Israel). Additional Escherichia coli strains tested include β-lactamase producer 35218; clinical isolate strains 14182, 14384, and U16327; and two K12 isogenic mutants, AG100 and AG100A. Unless otherwise stated, all bacterial cultures were grown overnight in Luria-Bertani broth (LB).
as §2

Where [20] appears, read: bacteria exposed in vitro to 5 μM Compound B for 15 minutes, neutropenic mice, 3 days post-infection.

Consider `CCCCCCCCCC(=O)NC(CCCN)C(=O)NC(CCCN)C(=O)NCCCCCCCCCCCC(=O)NC(CCCN)C(N)=O` (stereo not drawn) [Compound B] (Decanoyl-[Orn][Orn][12Ado][Orn]-NH2; configuration not given here), for which the “Q, charge at physiological pH” value in data set [1] turned out to be 3. The “CAC, critical aggregation concentration” value in data set [2] is above 100 µM. Further, the MIC was above 50 µM in data set [3]; above 50 µM in data set [4]; above 50 µM in data set [5]; above 50 µM in data set [6]; 50 µM (≈ 35.6 µg/mL) in data set [7]; 50 µM (≈ 35.6 µg/mL) in data set [8]. Also, the MIC in [9], in data set [10] and in data set [19] was above 50 µM each time. Further, the MBC in [11] was above 50 µM. Further, in [12], the “adverse effects at highest tested dose” value is listed as “did not result in any visible adverse effect”. Further, the “growth kinetics in presence vs absence of compound” value in data set [13] and in data set [14] was “practically identical curves” throughout. Also, the entries for the “animal survival after infection with pretreated bacteria” value in [15] (setting [20]) and in data set [16] (setting [20]) were 40% and 70%, respectively. In data set [15] (neutropenic ICR mice infected i.p., lower dose administrated twice (1 and 6 hours after inoculation)), this compound returned a survival rate of 70%. Also, the “mice protected from fatal sepsis (survival)” value in data set [15] (neutropenic ICR mice infected i.p., s.c. single dose 1 hour after inoculation) is recorded as 40%. In [15] (neutropenic ICR mice, Compound B […] s.c. alone, 1 hour after infection), the “mice protected from developing sepsis” value worked out at 36%. Further, the survival frequency was determined as 90% in data set [16] (s.c. double doses) and 60% in data set [16] (s.c. single dose). In addition, in data set [17], the “reduction of the number of inoculated E. coli” value was found to be 80%. Moreover, in [18], the “effect on proliferation in thigh” value is given as “significantly inhibited proliferation”.
